# Reference: US8329919B2, “Salt hydrates” (Novartis AG, priority 2002, dated 2012)
# Values joined by “and” are separate entries in the source; they are usually repeats but may differ in a detail not shown here. Equal values may be shown once.
# Experiment: Thermogravimetry: weight loss, i.e. water loss, as a function of temperature (thermobalance TGS-2)
# Type: physicochemical
# Conditions: heating rate 10 K·min^−1, water-free N2 atmosphere
# Experimental: Using thermogravimetry, in a water-free N2 atmosphere, the weight loss, i.e. the water loss for the tetrahydrate of the calcium salt of valsartan A1,Ca as a function of temperature, was measured at a heating rate of 10 K·min^−1. […]
# Using thermogravimetry, in a water-free N2 atmosphere, the weight loss, i.e. the water loss for the trihydrate of the calcium salt of valsartan in the polymorphic form B1,Ca as a function of temperature, was measured at a heating rate of 10 K·min^−1.
# (§1) Using thermogravimetry, in a water-free N2 atmosphere, the weight loss, i.e. the water loss for the trihydrate B2,Ca as a function of temperature, was measured at a heating rate of 10 K·min^−1. The results for the polymorph B2,Ca of the trihydrate of the calcium salt of valsartan are illustrated in table 4.
# as §1, with “B3,Ca” for “B2,Ca”, “polymorphic form B3,Ca” for “polymorph B2,Ca”, “5.” for “4.”
# Using thermogravimetry, in a water-free N2 atmosphere, the weight loss, i.e. the water loss for the di-(calcium salt of valsartan) pentahydrate D1,Ca as a function of temperature, was measured at a heating rate of 10 K·min^−1.
# The instrument used for the calorimetric data is throughout a DSC Pyris 1 (Differential Scanning calorimeter) obtained from Perkin-Elmer Corp., Norwalk, Conn. USA. The measurements are performed with samples enclosed in a sealed gold specimen container with an internal free volume of ca. 22 microliters, with a sample weight of 2 to 4 mg and with a heating rate of Tr=10K·min^−1. […] The instrument used was a TGS-2 (Perkin-Elmer Corp., Norwalk, Conn. USA) and the measurement was performed in a water free atmosphere. The heating rate selected was 10 K·min^−1. The weight loss is illustrated in table 7.
# The heating rate selected was 10K·min^−1.
# Using thermogravimetry, in a water-free N2 atmosphere, the weight loss, i.e. the water loss for the tetrahydrate as a function of temperature, was measured at a heating rate of 10 K·min^−1. The results for the calcium salt of valsartan tetrahydrate A0,Ca are listed in the following: […]
# Using thermogravimetry, in a water-free N2 atmosphere, the weight loss, i.e. the water loss for the tetrahydrate of the calcium salt of valsartan as a function of temperature, was measured at a heating rate of 10 K·min^−1.
Compound,weight loss or water loss in % (temperature 25 °C),weight loss or water loss in % (temperature 50 °C),weight loss or water loss in % (temperature 75 °C),weight loss or water loss in % (temperature 100 °C),weight loss or water loss in % (temperature 125 °C),weight loss or water loss in % (temperature 150 °C),weight loss or water loss in % (temperature 175 °C),weight loss or water loss in % (temperature 200 °C),weight loss or water loss in % (temperature 225 °C),weight loss or water loss in % (temperature 250 °C),weight loss or water loss in % (temperature 275 °C),also measured
"CCCCC(=O)N(Cc1ccc(-c2ccccc2-c2nnn[nH]2)cc1)[C@H](C(=O)O)C(C)C [A1,Mg, (S)—N-(1-carboxy-2-methyl-prop-1-yl)-N-pentanoyl-N-[2′-(1H-tetrazol-5-yl)-biphenyl-4-ylmethyl]-amine]",0.1 ± 0.1% and 0%,1.0 ± 0.3% and 0.9%,6.8 ± 0.5% and 6.8%,14.1 ± 0.5% and 14.3%,15.6 ± 0.5% and 15.7%,16.4 ± 0.5% and 16.5%,16.9 ± 0.5% and 17.0%,17.1 ± 0.5% and 17.2%,17.3 ± 0.5% and 17.4%,17.6 ± 0.5% and 17.8%,18.3 ± 0.5% and 18.3%,–
"CCCCC(=O)N(Cc1ccc(-c2ccccc2-c2nnn[nH]2)cc1)[C@H](C(=O)O)C(C)C [A2,Ca, (S)—N-(1-carboxy-2-methyl-prop-1-yl)-N-pentanoyl-N-[2′-(1H-tetrazol-5-yl)-biphenyl-4-ylmethyl]-amine]",0 ± 0.3% and 0%,0.1 ± 0.3% and 0%,0.5 ± 0.5% and 0%,4.9 ± 0.5% and 4.7%,11.2 ± 0.5% and 11.1%,12.2 ± 0.5% and 11.9%,12.6 ± 0.5% and 12.3%,12.7 ± 0.5% and 12.5%,12.8 ± 0.5% and 12.6%,12.8 ± 0.5% and 12.7%,13.0 ± 0.5% and 13.3%,–
"(S)—N-(1-carboxy-2-methyl-prop-1-yl)-N-pentanoyl-N-[2′-(1H-tetrazol-5-yl)-biphenyl-4-ylmethyl]-amine calcium salt trihydrate [B1,Ca]",–,–,–,–,–,–,–,9.7%,–,–,–,"weight loss or water loss in % (temperature 25 °C, calcium salt trihydrate): 0.4 ± 0.3% and 0.5%; weight loss or water loss in % (temperature 50 °C, calcium salt trihydrate): 2.0 ± 0.5% and 2.0%; weight loss or water loss in % (temperature 75 °C, calcium salt trihydrate): 4.0 ± 0.5% and 3.9%; weight loss or water loss in % (temperature 100 °C, calcium salt trihydrate): 6.3 ± 0.5% and 5.7%; weight loss or water loss in % (temperature 125 °C, calcium salt trihydrate): 8.5 ± 0.5% and 8.1%; weight loss or water loss in % (temperature 150 °C, calcium salt trihydrate): 9.5 ± 0.5% and 9.2%; weight loss or water loss in % (temperature 175 °C, calcium salt trihydrate): 9.7 ± 0.5% and 9.5%; weight loss or water loss in % (temperature 200 °C, calcium salt trihydrate): 9.9 ± 0.5%; weight loss or water loss in % (temperature 225 °C, calcium salt trihydrate): 9.9 ± 0.5% and 9.7%; weight loss or water loss in % (temperature 250 °C, calcium salt trihydrate): 10.0 ± 0.5% and 9.9%; weight loss or water loss in % (temperature 275 °C, calcium salt trihydrate): 10.3 ± 0.5% and 10.2%"
"CCCCC(=O)N(Cc1ccc(-c2ccccc2-c2nnn[nH]2)cc1)[C@H](C(=O)O)C(C)C [F1,Ca, (S)—N-(1-carboxy-2-methyl-prop-1-yl)-N-pentanoyl-N-[2′-(1H-tetrazol-5-yl)-biphenyl-4-ylmethyl]-amine]",0.6%,3.0%,5.6%,7.1%,7.9%,8.3%,8.6%,8.6%,8.8%,–,–,–
"(S)—N-(1-carboxy-2-methyl-prop-1-yl)-N-pentanoyl-N-[2′-(1H-tetrazol-5-yl)-biphenyl-4-ylmethyl]-amine calcium salt tetrahydrate [A0,Ca]",0%,0%,0.5%,3.5%,10.2%,12.4%,12.8%,12.9%,13.0%,13.3%,13.2%,–
"CCCCC(=O)N(Cc1ccc(-c2ccccc2-c2nnn[nH]2)cc1)[C@H](C(=O)O)C(C)C [A0,Mg, (S)—N-(1-carboxy-2-methyl-prop-1-yl)-N-pentanoyl-N-[2′-(1H-tetrazol-5-yl)-biphenyl-4-ylmethyl]-amine]",0.0%,1.2%,4.2%,11.0%,16.7%,17.7%,18.3%,18.5%,18.7%,18.9%,19.3%,–
"(S)—N-(1-carboxy-2-methyl-prop-1-yl)-N-pentanoyl-N-[2′-(1H-tetrazol-5-yl)-biphenyl-4-ylmethyl]-amine calcium salt tetrahydrate [A1,Ca]",1.1 ± 0.5% and 1.1%,3.3 ± 0.5% and 3.3%,5.1 ± 0.5% and 5.1%,9.6 ± 1.0% and 9.6%,12.2 ± 0.5% and 12.1%,12.9 ± 0.5% and 12.9%,13.2 ± 0.5% and 13.2%,13.3 ± 0.5% and 13.3%,13.4 ± 0.5% and 13.4%,13.3 ± 0.5% and 13.3%,13.7 ± 0.5% and 13.7%,–
"CCCCC(=O)N(Cc1ccc(-c2ccccc2-c2nn[n-]n2)cc1)[C@H](C(=O)[O-])C(C)C.CCCCC(=O)N(Cc1ccc(-c2ccccc2-c2nn[n-]n2)cc1)[C@H](C(=O)[O-])C(C)C.O.O.O.O.O.[Ca+2].[Ca+2] [D1,Ca, di-{calcium salt of (S)—N-(1-carboxy-2-methyl-prop-1-yl)-N-pentanoyl-N-[2′-(1H-tetrazol-5-yl)-biphenyl-4-ylmethyl]-amine}pentahydrate]",0.1 ± 0.1% and 0.1%,1.3 ± 0.3% and 1.7%,2.8 ± 0.5% and 3.3%,5.1 ± 0.5% and 5.1%,7.4 ± 0.5% and 7.1%,8.0 ± 0.5% and 7.7%,8.1 ± 0.5% and 7.9%,8.2 ± 0.5% and 8.0%,8.2 ± 0.5% and 8.1%,8.3 ± 0.5% and 8.3%,8.6 ± 0.5% and 8.6%,–
